Test results taken from patent US8580769B2, “Treatment of obesity, metabolic syndrome, and diabetes with protein kinase C inhibitors” (The United States of America as represented by the …, priority 2011, dated 2013).

Key:
FoxO1 = test: serine-256 phosphorylation of FoxO1 in human hepatocytes; format: cell-based; settings: inhibitor alone or with insulin
Protocol: After thawing, the hepatocytes were distributed (approximately 10^6 cells per 100 mm plate) and incubated approximately 16 hours overnight in Dulbecco's minimal essential medium containing 5% fetal calf serum, 100 units/ml sodium-penicillin, 100 μg/ml streptomycin-sulfate, 1 μM insulin and 2 μM dexamethasone. After washing, cells were incubated first for 2 hours in William's E medium (Sigma-Aldrich, St. Louis, Mo., catalog no. W1878) containing GLUTAMAX™ (Gibco/Invitrogen, Carlsbad, Calif.), 100 units/ml sodium-penicillin, 100 μg/ml streptomycin-sulfate, 10 μM insulin, 100 nM dexamethasone, and then for 2 hours in William's E medium containing 100 units/ml sodium penicillin, 100 μg/ml streptomycin-sulfate, 100 nM dexamethasone, 0.25 mg/ml transferrin, 0.25 μg/ml sodium selenite and 10 μM insulin. Cells were then washed and incubated for 3 hours in the same medium, but lacking insulin. Where indicated, an aPKC inhibitor was then added and incubation was continued for 30 min, after which, cells were treated either for 15 min with or without 100 nM insulin for acute signaling studies, or for 6 hours, with or without 1 μM insulin for expression studies. After incubation, cells were sonicated in homogenizing buffer. […]

[1] = tested on: AMP-activated protein kinase; test: AMP-activated protein kinase activity
recombinant PKC-ι = target: T1, recombinant PKC-ι (Homo sapiens, UniProt P41743); test: recombinant PKC-ι activity assay (PIP3-activated); format: biochemical
T1 construct: purchased Biovision, Mountain View, Calif
T1 sequence (P41743 1-596): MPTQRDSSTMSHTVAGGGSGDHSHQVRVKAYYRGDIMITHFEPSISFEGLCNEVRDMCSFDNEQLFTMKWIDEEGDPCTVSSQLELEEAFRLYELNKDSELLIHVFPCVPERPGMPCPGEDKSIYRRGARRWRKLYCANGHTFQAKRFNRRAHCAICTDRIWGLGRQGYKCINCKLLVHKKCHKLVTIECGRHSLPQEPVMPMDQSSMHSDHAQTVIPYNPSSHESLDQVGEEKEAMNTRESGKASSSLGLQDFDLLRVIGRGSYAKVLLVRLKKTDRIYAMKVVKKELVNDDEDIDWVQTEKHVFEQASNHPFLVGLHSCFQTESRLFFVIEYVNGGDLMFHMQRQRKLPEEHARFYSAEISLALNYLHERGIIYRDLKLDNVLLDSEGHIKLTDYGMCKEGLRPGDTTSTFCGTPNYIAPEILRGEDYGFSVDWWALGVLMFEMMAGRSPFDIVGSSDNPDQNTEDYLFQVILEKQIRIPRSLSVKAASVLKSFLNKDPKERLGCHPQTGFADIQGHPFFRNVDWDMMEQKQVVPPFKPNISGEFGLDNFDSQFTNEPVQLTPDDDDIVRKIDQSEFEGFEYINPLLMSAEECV
Protocol: aPKCι Assays: aPKC enzyme activity was measured as previously described (Standaert et al., J. Biol. Chem. 279:24929-24934, 2004; Sajan et al., J. Lipid Res. 50:1133-1145, 2009; Sajan et al., Diabetologia 52:1197-1207, 2009; Farese et al., J. Clin. Invest. 117:2289-2301, 2007). […] After incubation, ^32P-labeled substrate was trapped on P-81 filter paper and counted. […]

| Compound | FoxO1 phosphorylation (FoxO1) | AMP-activated protein kinase activity [1] | IC50 (recombinant PKC-ι; 10 ng recombinant PKC-ι activated by 10 fM PIP3, in vitro) | inhibition of PIP3-activated recombinant PKC-ι (recombinant PKC-ι; in vitro) |
| --- | --- | --- | --- | --- |
| NC(=O)c1ncn([C@@H]2C[C@H](COP(=O)(O)O)[C@@H](O)[C@H]2O)c1N [ICAPP, 1H-imidazole-4-carboxamide, 5-amino-1-[2,3-dihydroxy-4-[(phosphonooxy)methyl]cyclopentyl]-[1R-(1α,2β,3β,4α)]] | insulin-like, or enhanced insulin, effects | neither ICAPP nor ATM altered | 0.01 to 0.1 µM |  |
| O=C([O-])CC([S][Au])C(=O)[O-] (stereo not drawn) [ATM, aurothiomalate, reference compound] | insulin-like, or enhanced insulin, effects | neither ICAPP nor ATM altered |  | did not inhibit |
